The source of these data is PMC5218480 (PLoS ONE, 2017).

The assay relates to MV-4-11 cells. Nature of the assay: Gene expression microarray analysis (Affymetrix PrimeView) and GSEA. The arrangement: RFU PODN (11730768_x_at) / Fold change /veh PODN (11730768_x_at) / RFU LINC00158 (11744669_a_at) / Fold change /veh LINC00158 (11744669_a_at) / RFU DUSP10 (11751237_a_at) / Fold change /veh DUSP10 (11751237_a_at) / RFU ID3 (11757404_x_at) / Fold change /veh ID3 (11757404_x_at) / RFU PLEKHG5 (11737974_s_at) / Fold change /veh PLEKHG5 (11737974_s_at) / RFU LRRC4B (11730491_at) / Fold change /veh LRRC4B (11730491_at) / RFU GIMAP4 (11747438_a_at) / Fold change /veh GIMAP4 (11747438_a_at) / RFU KRT8 (11758183_x_at) / Fold change /veh KRT8 (11758183_x_at) / RFU CNN1 (11734310_a_at) / Fold change /veh CNN1 (11734310_a_at) / RFU VPS37D (11726825_at) / Fold change /veh VPS37D (11726825_at) / RFU C10orf10 (11716522_x_at) / Fold change /veh C10orf10 (11716522_x_at) / RFU KIR2DL2 /// KIR2DL4 /// KIR2DL5A /// KIR2DL5B /// KIR2DS1 /// KIR2DS2 /// KIR2DS3 /// KIR2DS4 /// KIR3DL3 /// KIR3DL3 /// KIR3DS1 (11738374_at) / Fold change /veh KIR2DL2 /// KIR2DL4 /// KIR2DL5A /// KIR2DL5B /// KIR2DS1 /// KIR2DS2 /// KIR2DS3 /// KIR2DS4 /// KIR3DL3 /// KIR3DL3 /// KIR3DS1 (11738374_at) / RFU C1QL1 (11718748_at) / Fold change /veh C1QL1 (11718748_at) / RFU TMPRSS4 (11747572_a_at) / Fold change /veh TMPRSS4 (11747572_a_at) / RFU HAMP (11756126_x_at) / Fold change /veh HAMP (11756126_x_at) / RFU RNFT2 (11725882_a_at) / Fold change /veh RNFT2 (11725882_a_at) / RFU NR4A2 (11747474_a_at) / Fold change /veh NR4A2 (11747474_a_at) / RFU ABCC12 (11746883_a_at) / Fold change /veh ABCC12 (11746883_a_at) / RFU TMEM136 (11760407_x_at) / Fold change /veh TMEM136 (11760407_x_at) / RFU CLDN22 /// WWC2 (11732394_at) / Fold change /veh CLDN22 /// WWC2 (11732394_at) / RFU HLA-DPB1 (11760878_x_at) / Fold change /veh HLA-DPB1 (11760878_x_at) / RFU SPINT1 (11716480_a_at) / Fold change /veh SPINT1 (11716480_a_at) / RFU GAP43 (11754022_s_at) / Fold change /veh GAP43 (11754022_s_at) / RFU A4GNT (11735810_at) / Fold change /veh A4GNT (11735810_at) / RFU PRB3 (11715151_x_at) / Fold change /veh PRB3 (11715151_x_at) / RFU TUBB4B (11761932_at) / Fold change /veh TUBB4B (11761932_at) / RFU CAPN14 (11732068_a_at) / Fold change /veh CAPN14 (11732068_a_at) / RFU TMCC2 (11721928_a_at) / Fold change /veh TMCC2 (11721928_a_at) / RFU IRGQ (11745062_a_at) / Fold change /veh IRGQ (11745062_a_at) / RFU FAM174B (11720279_a_at) / Fold change /veh FAM174B (11720279_a_at) / RFU TMPRSS4 (11748680_a_at) / Fold change /veh TMPRSS4 (11748680_a_at) / RFU FAM212B (11763350_a_at) / Fold change /veh FAM212B (11763350_a_at) / RFU PLEKHG5 (11743358_a_at) / Fold change /veh PLEKHG5 (11743358_a_at) / RFU ZSCAN30 (11745921_a_at) / Fold change /veh ZSCAN30 (11745921_a_at) / RFU CMKLR1 (11741424_a_at) / Fold change /veh CMKLR1 (11741424_a_at) / RFU LOC101060620 /// MAPK8IP1 (11723275_at) / Fold change /veh LOC101060620 /// MAPK8IP1 (11723275_at) / RFU SPTSSB (11747773_x_at) / Fold change /veh SPTSSB (11747773_x_at) / RFU PRSS12 (11739890_at) / Fold change /veh PRSS12 (11739890_at) / RFU BIN1 (11741810_x_at) / Fold change /veh BIN1 (11741810_x_at) / RFU WNT11 (11732464_a_at) / Fold change /veh WNT11 (11732464_a_at) / RFU C10orf10 (11716521_a_at) / Fold change /veh C10orf10 (11716521_a_at) / RFU C5orf56 (11738089_at) / Fold change /veh C5orf56 (11738089_at) / RFU CYB561 (11721691_x_at) / Fold change /veh CYB561 (11721691_x_at) / RFU ANKRD19P (11752326_a_at) / Fold change /veh ANKRD19P (11752326_a_at) / RFU OR2T12 /// OR2T33 /// OR2T8 (11738714_s_at) / Fold change /veh OR2T12 /// OR2T33 /// OR2T8 (11738714_s_at) / RFU VCAN (11748164_a_at) / Fold change /veh VCAN (11748164_a_at) / RFU JSRP1 (11732532_at) / Fold change /veh JSRP1 (11732532_at) / RFU KRTAP10-11 (11738290_x_at) / Fold change /veh KRTAP10-11 (11738290_x_at) / RFU MYO3A (11730013_a_at) / Fold change /veh MYO3A (11730013_a_at) / RFU EBF3 (11725865_a_at) / Fold change /veh EBF3 (11725865_a_at) / RFU CAMK2N1 (11719241_x_at) / Fold change /veh CAMK2N1 (11719241_x_at) / RFU C5orf56 (11738088_a_at) / Fold change /veh C5orf56 (11738088_a_at) / RFU OLFML3 (11715873_a_at) / Fold change /veh OLFML3 (11715873_a_at) / RFU LOC100653217 /// NTM (11731650_a_at) / Fold change /veh LOC100653217 /// NTM (11731650_a_at) / RFU MAPK11 (11762145_a_at) / Fold change /veh MAPK11 (11762145_a_at) / RFU FIZ1 (11724087_x_at) / Fold change /veh FIZ1 (11724087_x_at) / RFU OASL (11726364_x_at) / Fold change /veh OASL (11726364_x_at) / RFU SOX15 (11748057_x_at) / Fold change /veh SOX15 (11748057_x_at) / RFU CD79A (11719716_a_at) / Fold change /veh CD79A (11719716_a_at) / RFU HIST1H1D (11736915_at) / Fold change /veh HIST1H1D (11736915_at) / RFU CASKIN2 (11723855_a_at) / Fold change /veh CASKIN2 (11723855_a_at) / RFU LOC730098 (11760151_x_at) / Fold change /veh LOC730098 (11760151_x_at) / RFU OR4N2 (11742367_at) / Fold change /veh OR4N2 (11742367_at) / RFU PRRT2 (11749266_a_at) / Fold change /veh PRRT2 (11749266_a_at) / RFU SNX32 (11753110_a_at) / Fold change /veh SNX32 (11753110_a_at) / RFU CDHR5 (11726645_a_at) / Fold change /veh CDHR5 (11726645_a_at) / RFU RCAN1 (11760418_a_at) / Fold change /veh RCAN1 (11760418_a_at) / RFU FAM167A (11723789_a_at) / Fold change /veh FAM167A (11723789_a_at) / RFU FAM26E (11764081_at) / Fold change /veh FAM26E (11764081_at) / RFU ISYNA1 (11749810_s_at) / Fold change /veh ISYNA1 (11749810_s_at) / RFU ACY1 (11761880_at) / Fold change /veh ACY1 (11761880_at) / RFU 11764098_at / Fold change /veh 11764098_at / RFU SAMD14 (11745864_x_at) / Fold change /veh SAMD14 (11745864_x_at) / RFU NPB (11741838_a_at) / Fold change /veh NPB (11741838_a_at) / RFU TMPRSS6 (11731388_a_at) / Fold change /veh TMPRSS6 (11731388_a_at) / RFU KRTAP10-2 (11738614_at) / Fold change /veh KRTAP10-2 (11738614_at) / RFU ARHGAP8 /// PRR5-ARHGAP8 (11727945_x_at) / Fold change /veh ARHGAP8 /// PRR5-ARHGAP8 (11727945_x_at) / RFU KRTAP5-7 /// NADSYN1 (11734609_at) / Fold change /veh KRTAP5-7 /// NADSYN1 (11734609_at) / RFU RASL12 (11751679_a_at) / Fold change /veh RASL12 (11751679_a_at) / RFU CDKN2B (11736163_a_at) / Fold change /veh CDKN2B (11736163_a_at) / RFU PRF1 (11729649_at) / Fold change /veh PRF1 (11729649_at) / RFU, ZNF638 /// ZNF638-IT1 / Fold change vs veh, ZNF638 /// ZNF638-IT1 / RFU, PANK3 / Fold change vs veh, PANK3 / RFU, SH3YL1 / Fold change vs veh, SH3YL1 / RFU, ZEB2 / Fold change vs veh, ZEB2 / RFU, NRIP1 / Fold change vs veh, NRIP1 / RFU, PTTG1IP / Fold change vs veh, PTTG1IP / RFU, CAPN2 / Fold change vs veh, CAPN2 / RFU, MED14 / Fold change vs veh, MED14 / RFU, SNORA58 / Fold change vs veh, SNORA58 / RFU, C1orf63 / Fold change vs veh, C1orf63 / RFU, LRRFIP1 / Fold change vs veh, LRRFIP1 / RFU, NDUFAF7 / Fold change vs veh, NDUFAF7 / RFU, SLC12A2 / Fold change vs veh, SLC12A2 / RFU, IBTK / Fold change vs veh, IBTK / RFU, ESF1 / Fold change vs veh, ESF1 / Fold change vs veh, TMEM50B / RFU, TAOK1 / Fold change vs veh, TAOK1 / RFU, ACBD3 / Fold change vs veh, ACBD3 / RFU, TMA16 / Fold change vs veh, TMA16 / RFU, RWDD3 / Fold change vs veh, RWDD3 / RFU, BCAT1 / Fold change vs veh, BCAT1 / RFU, EDEM3 / Fold change vs veh, EDEM3 / RFU, TMEM33 / Fold change vs veh, TMEM33 / RFU, WDR75 / Fold change vs veh, WDR75 / RFU, AHCTF1 / Fold change vs veh, AHCTF1 / RFU, TFRC / Fold change vs veh, TFRC / RFU, ZDHHC17 / Fold change vs veh, ZDHHC17 / RFU, NOM1 / Fold change vs veh, NOM1 / RFU, ARL8B / Fold change vs veh, ARL8B / RFU, ZBTB11 / Fold change vs veh, ZBTB11 / RFU, TAMM41 / Fold change vs veh, TAMM41 / RFU, KIAA1704 /// LOC100996395 / Fold change vs veh, KIAA1704 /// LOC100996395 / RFU, ING1 / Fold change vs veh, ING1 / RFU, TRMT61B / Fold change vs veh, TRMT61B / RFU, FUBP3 / Fold change vs veh, FUBP3 / RFU, TP53 / Fold change vs veh, TP53 / RFU, TNKS2 / Fold change vs veh, TNKS2 / RFU, ZFP14 / Fold change vs veh, ZFP14 / RFU, ACTR2 / Fold change vs veh, ACTR2 / RFU, PPP3R1 / Fold change vs veh, PPP3R1 / RFU, PIK3R1 / Fold change vs veh, PIK3R1 / RFU, HNRNPA1 / Fold change vs veh, HNRNPA1 / RFU, RNF170 / Fold change vs veh, RNF170 / RFU, ZNF28 / Fold change vs veh, ZNF28 / RFU, RNGTT / Fold change vs veh, RNGTT / RFU, OGT / Fold change vs veh, OGT / RFU, BRD1 / Fold change vs veh, BRD1 / RFU, MARS / Fold change vs veh, MARS / RFU, ZNF655 / Fold change vs veh, ZNF655 / RFU, FAHD1 / Fold change vs veh, FAHD1 / RFU, BDP1 / Fold change vs veh, BDP1 / RFU, LRRCC1 / Fold change vs veh, LRRCC1 / RFU, ARID1A / Fold change vs veh, ARID1A / RFU, ZNF146 / Fold change vs veh, ZNF146 / RFU, ZNF330 / Fold change vs veh, ZNF330 / RFU, GPN3 / Fold change vs veh, GPN3 / RFU, C9orf123 / Fold change vs veh, C9orf123 / RFU, N4BP2L2 / Fold change vs veh, N4BP2L2 / RFU, ARFIP1 / Fold change vs veh, ARFIP1 / RFU, FAM179B / Fold change vs veh, FAM179B / RFU, BCL10 / Fold change vs veh, BCL10 / RFU, UHRF1BP1L / Fold change vs veh, UHRF1BP1L / RFU, BET1 / Fold change vs veh, BET1 / RFU, CNOT2 / Fold change vs veh, CNOT2 / RFU, ZNF268 / Fold change vs veh, ZNF268 / Fold change vs veh, ZNF507 / RFU, DGCR2 / Fold change vs veh, DGCR2 / RFU, WDSUB1 / Fold change vs veh, WDSUB1 / Fold change vs veh, HSP90B1 /// MIR3652 / RFU, ADSS / Fold change vs veh, ADSS / RFU, GK / Fold change vs veh, GK / RFU, ZNF148 / Fold change vs veh, ZNF148 / RFU, TAF9 / Fold change vs veh, TAF9 / RFU, SLC1A5 / Fold change vs veh, SLC1A5 / RFU, SLMO2 / Fold change vs veh, SLMO2 / RFU, ABCC4 / Fold change vs veh, ABCC4 / RFU, LOC101060439 /// RAP1B / Fold change vs veh, LOC101060439 /// RAP1B / RFU, RFX7 / Fold change vs veh, RFX7 / RFU, GTPBP10 / Fold change vs veh, GTPBP10 / RFU, CNEP1R1 / Fold change vs veh, CNEP1R1 / RFU, BIVM-ERCC5 /// ERCC5 / Fold change vs veh, BIVM-ERCC5 /// ERCC5 / RFU, ILF3 / Fold change vs veh, ILF3 / RFU 11762660_at / Fold change /veh 11762660_at / RFU VCAN (11757783_s_at) / Fold change /veh VCAN (11757783_s_at) / RFU DDX43 (11728927_at) / Fold change /veh DDX43 (11728927_at) / RFU KRT8 (11758188_x_at) / Fold change /veh KRT8 (11758188_x_at) / RFU NKD1 (11759106_at) / Fold change /veh NKD1 (11759106_at) / RFU SRD5A1 (11742802_a_at) / Fold change /veh SRD5A1 (11742802_a_at) / RFU TPSAB1 /// TPSB2 (11721975_s_at) / Fold change /veh TPSAB1 /// TPSB2 (11721975_s_at) / RFU GSTM3 (11746129_a_at) / Fold change /veh GSTM3 (11746129_a_at) / RFU IL23R (11737362_x_at) / Fold change /veh IL23R (11737362_x_at) / RFU TMEM51 (11727254_a_at) / Fold change /veh TMEM51 (11727254_a_at) / RFU PIWIL2 (11732686_x_at) / Fold change /veh PIWIL2 (11732686_x_at) / RFU ORM1 (11744905_x_at) / Fold change /veh ORM1 (11744905_x_at) / RFU CCDC152 (11743942_at) / Fold change /veh CCDC152 (11743942_at) / RFU ECM1 (11717891_a_at) / Fold change /veh ECM1 (11717891_a_at) / RFU IL23R (11748794_a_at) / Fold change /veh IL23R (11748794_a_at) / RFU TNFAIP8L3 (11732012_x_at) / Fold change /veh TNFAIP8L3 (11732012_x_at) / RFU MBOAT4 (11741988_at) / Fold change /veh MBOAT4 (11741988_at) / RFU 11764193_at / Fold change /veh 11764193_at / RFU TMEM53 (11763286_at) / Fold change /veh TMEM53 (11763286_at) / RFU MAGEB2 (11727129_at) / Fold change /veh MAGEB2 (11727129_at) / RFU TMEM200A (11744735_a_at) / Fold change /veh TMEM200A (11744735_a_at) / RFU CCDC152 (11751479_a_at) / Fold change /veh CCDC152 (11751479_a_at) / RFU FAM211A (11726209_a_at) / Fold change /veh FAM211A (11726209_a_at) / RFU RGS16 (11746705_a_at) / Fold change /veh RGS16 (11746705_a_at) / RFU VCAN (11755009_s_at) / Fold change /veh VCAN (11755009_s_at) / RFU RHOB (11743442_s_at) / Fold change /veh RHOB (11743442_s_at) / RFU RGS16 (11720943_a_at) / Fold change /veh RGS16 (11720943_a_at) / RFU RGS16 (11720944_at) / Fold change /veh RGS16 (11720944_at) / RFU, VPS4B / Fold change vs veh, VPS4B / RFU, CREB1 / Fold change vs veh, CREB1 / RFU, DNAJC13 / Fold change vs veh, DNAJC13 / RFU, GNAQ / Fold change vs veh, GNAQ / RFU, CDK5R1 / Fold change vs veh, CDK5R1 / RFU, ZRANB3 / Fold change vs veh, ZRANB3 / RFU, CUL4A / Fold change vs veh, CUL4A / RFU, CCNY / Fold change vs veh, CCNY / RFU, UFL1 / Fold change vs veh, UFL1 / RFU, COG3 / Fold change vs veh, COG3 / RFU, DIAPH2 / Fold change vs veh, DIAPH2 / RFU, SKA2 / Fold change vs veh, SKA2 / RFU, AFF3 / Fold change vs veh, AFF3 / RFU, LMF1 / Fold change vs veh, LMF1 / RFU, IPO11 / Fold change vs veh, IPO11 / RFU, DFFB / Fold change vs veh, DFFB / RFU, FOXP1 / Fold change vs veh, FOXP1 / RFU, CARD8 / Fold change vs veh, CARD8 / RFU, STRN3 / Fold change vs veh, STRN3 / RFU, ADK / Fold change vs veh, ADK / RFU, RASSF2 / Fold change vs veh, RASSF2 / RFU, WIPF1 / Fold change vs veh, WIPF1 / RFU, LARP1B / Fold change vs veh, LARP1B / RFU, RASA1 / Fold change vs veh, RASA1 / RFU, RB1 / Fold change vs veh, RB1 / RFU, PPFIA1 / Fold change vs veh, PPFIA1 / RFU, MAT2A / Fold change vs veh, MAT2A / RFU, CCT5 / Fold change vs veh, CCT5 / RFU, WDR92 / Fold change vs veh, WDR92 / RFU, CUX1 / Fold change vs veh, CUX1 / RFU, TTC7A / Fold change vs veh, TTC7A / RFU, TMEM135 / Fold change vs veh, TMEM135 / RFU, DEPTOR / Fold change vs veh, DEPTOR / RFU, CPM / Fold change vs veh, CPM / RFU, DNAJB6 / Fold change vs veh, DNAJB6 / RFU, CACNA2D3 / Fold change vs veh, CACNA2D3 / RFU, DTX4 / Fold change vs veh, DTX4 / RFU, TFCP2 / Fold change vs veh, TFCP2 / RFU, GMCL1 /// GMCL1P1 / Fold change vs veh, GMCL1 /// GMCL1P1 / RFU, AEBP2 / Fold change vs veh, AEBP2 / RFU, SNHG1 /// SNORD22 /// SNORD25 /// SNORD26 /// SNORD27 /// SNORD28 /// SNORD29 /// SNORD31 / Fold change vs veh, SNHG1 /// SNORD22 /// SNORD25 /// SNORD26 /// SNORD27 /// SNORD28 /// SNORD29 /// SNORD31 / Fold change (Aza/veh), C12orf56 (ProbeSet 11735607_a_at) / Fold change (ACY-1035/veh), C12orf56 (ProbeSet 11735607_a_at) / Fold change (Aza/veh), FGFR1OP (ProbeSet 11751329_s_at) / Fold change (ACY-1035/veh), FGFR1OP (ProbeSet 11751329_s_at) / Fold change (Aza/veh), VPS36 (ProbeSet 11739960_a_at) / Fold change (ACY-1035/veh), VPS36 (ProbeSet 11739960_a_at) / RFU SYPL1 (11715823_x_at) / Fold change /veh SYPL1 (11715823_x_at) / RFU IGFBP7 (11715501_s_at) / Fold change /veh IGFBP7 (11715501_s_at) / RFU REEP3 (11722064_at) / Fold change /veh REEP3 (11722064_at) / RFU IGLL1 (11728026_x_at) / Fold change /veh IGLL1 (11728026_x_at): dose or concentration left out as unconfirmed. In kind it is cell-based, human. The note with it: ProbeSet 11720566_at; LIST D.

With `Nc1ncn([C@@H]2O[C@H](CO)[C@@H](O)[C@H]2O)c(=O)n1` [azacitidine], the “Fold change vs veh, BCAT1” value worked out at 0.67.
